This passage reports TGI results from PubChem BioAssay (NCI).

Assay in all cases: DTP human tumour cell line panel, 48 h
In assay [1] the test system is MOLT-4 leukemia.
For assay [2], the system named is SW-620 colon.
For assay [3], the system named is K-562 leukemia.
For assay [4], the system named is SK-OV-3 ovarian.
Assay [5] relates to NCI-H23 lung.
For assay [6], the system named is HT29 colon.
The subject of assay [7] is SK-MEL-28 melanoma.
The test system of assay [8] is COLO 205 colon.
Assay [9] deals with OVCAR-3 ovarian.
Assay [10] concerns SN12C renal.
Assay [11] relates to SF-295 CNS.
For assay [12], the system named is SK-MEL-2 melanoma.
The subject of assay [13] is SNB-19 CNS.
The test system of assay [14] is OVCAR-8 ovarian.
Assay [15] relates to RXF 393 renal.
For assay [16], the system named is CCRF-CEM leukemia.
The subject of assay [17] is HCT-116 colon.
The test system of assay [18] is HL-60(TB) leukemia.
Assay [19] concerns NCI/ADR-RES ovarian.
The test system of assay [20] is HCC-2998 colon.

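Cells were grown in 96-well plates and exposed to each compound for 48 hours at five concentrations; endpoints were interpolated linearly between bracketing concentrations, or set to the highest concentration if not reached. TGI marks complete inhibition of growth.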

Turning to `CO/C(=C/C(=O)C(Cl)(Cl)Cl)CC/C(=C\C(=O)C(Cl)(Cl)Cl)OC`, the TGI is > 100 µM in assay [1]; > 100 µM in assay [2]; > 100 µM in assay [3]; 87.3 µM in assay [4]; 62.7 µM in assay [5]; 85.3 µM in assay [6]. Also, the TGI in assay [7] was 80.5 µM; in assay [8], > 100 µM; in [9], 67.7 µM; in assay [10], 54.5 µM; in assay [11], > 100 µM; in [12], 84.1 µM. Also, the TGI in [13] was > 100 µM; in assay [14] it was 56 µM; in assay [15] it was 34.7 µM; in assay [16], > 100 µM; in [17], 42.2 µM; in assay [18], 80.5 µM. In addition, the TGI in assay [19] was > 100 µM.

As for `COC1=CC(=O)c2c(cc(COP(=O)(OCC3OC(n4cc(F)c(=O)[nH]c4=O)CC3O)N(C)CCCCCl)n2C)C1=O` (configuration not stated), the TGI in [1] is > 54 µM; in assay [2], > 59.9 µM; in [3], > 95.9 µM; in assay [4] it was > 79.8 µM; in [5], 17.7 µM; in assay [6], > 40.7 µM. For the same molecule, the TGI in assay [7] is > 68.8 µM; in assay [8], > 39.8 µM; in assay [9] it was 14.5 µM; in [10], 1.84 µM; in [11] it was 1.36 µM; in [12], 56.6 µM. Further, the TGI in assay [13] is > 70.5 µM; in [14], > 73.3 µM; in assay [15] it was 4.71 µM; in assay [16] it was > 100 µM; in assay [17] it was 28.5 µM; in assay [18], 16 µM. In addition, the total growth inhibition concentration (TGI) in assay [19] is > 40.6 µM.

For `COC(=O)C(C(=O)C(=O)Nc1ccccc1C#N)c1nc2ccc([N+](=O)[O-])cc2[nH]c1=O` (configuration not stated), the TGI in assay [1], in [2], in assay [4], in [5], in assay [6] and in assay [7] was > 100 µM throughout. Further, the TGI in [8], in [9], in assay [10], in assay [11], in assay [12] and in assay [20] was > 100 µM throughout. For the same molecule, the TGI in [13], in [14], in assay [15], in assay [16], in assay [17] and in assay [19] was > 100 µM throughout.

With `C=CCc1cc(C=C(C#N)C#N)cc(OC)c1O`, the TGI in [1], in assay [2], in assay [3], in [4], in assay [5] and in [6] was > 100 µM throughout. The TGI in assay [7], in [8], in assay [9], in assay [11], in assay [12] and in assay [13] was > 100 µM in each case. The TGI in [14] was > 100 µM; in assay [15], > 100 µM; in [16], > 100 µM; in [17], > 100 µM; in assay [18] it was 89.1 µM; in assay [19] it was > 100 µM.

Regarding `O=c1c(C2=NCCC2)c(-c2ccc[nH]2)[nH]n1-c1ccccc1`, the TGI in assay [1], in assay [2], in [3], in assay [4], in assay [5] and in [6] was > 100 µM in each case. In addition, the concentration for total growth inhibition (TGI) in assay [7], in assay [8], in assay [9], in [10], in assay [11] and in [12] was > 100 µM in each case. For the same molecule, the TGI in assay [13], in assay [14], in assay [15], in assay [16], in assay [17] and in assay [18] was > 100 µM in each case. Besides, in assay [19], the TGI is > 100 µM.

Turning to `COc1cc(C(=O)C2C(=O)c3ccccc3C2C2(O)c3ccccc3CC2C(O)c2cc(OC)c(OC)c(OC)c2)cc(OC)c1OC` (configuration not stated), the TGI in assay [1], in assay [2], in assay [3], in assay [4], in [5] and in assay [6] was > 100 µM each time. The total growth inhibition concentration (TGI) in assay [7], in assay [8], in assay [9], in assay [10], in assay [11] and in assay [12] was > 100 µM each time. Also, the TGI in [20], in assay [13], in assay [14], in assay [15], in [17] and in assay [19] was > 100 µM each time.

Take `O=C(NNC(=S)Nc1ccc(Br)cc1)c1cc(-c2ccccc2)nc2ccccc12`: the TGI in [1] stood at 52.9 µM; in assay [2] it was 46.9 µM; in assay [3], 89.8 µM; in assay [4], 47.5 µM; in [5], 55.8 µM; in assay [6], 82.4 µM. Also, the TGI in assay [7] came to 53 µM; in assay [8], 53 µM; in [9], 33.1 µM; in assay [10] it was 37.1 µM; in assay [11], 38.3 µM; in [12] it was 41.7 µM. The concentration for total growth inhibition (TGI) in assay [20] is 30.8 µM; in [13], > 100 µM; in assay [14], 57.7 µM; in [15], 40.4 µM; in assay [16], 42.8 µM; in [17], 30.4 µM. Also, the TGI in assay [19] amounted to 51.8 µM.

As to `COC(CC1(/C=C/O[Si](C(C)C)(C(C)C)C(C)C)C(=O)N(COCC[Si](C)(C)C)c2ccccc21)OC` (configuration not stated), the TGI in [1] is > 100 µM; in assay [2] it was > 100 µM; in [3], > 100 µM; in [4], 51.2 µM; in [5], > 100 µM; in assay [6], > 100 µM. The TGI in assay [7] is 60 µM; in assay [8] it was > 100 µM; in assay [9] it was 38.3 µM; in [10], > 100 µM; in [11], 22.5 µM; in assay [12], 26.8 µM. Moreover, the TGI is > 100 µM in assay [20]; > 100 µM in [13]; > 100 µM in [14]; 29.5 µM in [15]; > 100 µM in assay [16]; 71.6 µM in assay [17]. In [19], the TGI is > 100 µM.

As to `Nn1c(CCCCCCCCc2nnc(COc3ccccc3)n2N)nnc1COc1ccccc1`, the TGI in [1], in assay [2], in assay [3], in assay [4], in [5] and in assay [6] was > 100 µM in each case. Besides, the TGI in assay [7], in [8], in assay [10], in assay [11], in assay [12] and in assay [20] was > 100 µM each time. Further, the TGI in assay [13], in assay [14], in [15], in [17], in assay [18] and in assay [19] was > 100 µM in each case.

Take `COc1cccc2c3ccccc3c3nc[nH]c3c12`: the TGI is 28.4 µM in assay [1]; > 71.2 µM in [2]; 28.4 µM in assay [3]; > 100 µM in assay [4]; > 100 µM in [5]; > 100 µM in assay [6]. Besides, the TGI in assay [7] was > 77.2 µM; in [8], 36.1 µM; in assay [9], > 100 µM; in assay [10], > 100 µM; in assay [11] it was 46.4 µM; in [12] it was > 100 µM. Further, the TGI in assay [20] is > 55.6 µM; in assay [13], > 100 µM; in assay [14], > 100 µM; in [15], > 100 µM; in assay [16], 52.5 µM; in assay [17] it was > 100 µM. Further, the TGI in assay [19] was > 100 µM.

Take `Cc1cc(C)nc(SCC(=O)OC2CC(C)CCC2C(C)C)n1` (configuration not stated): the TGI in [1] is 38.6 µM; in [2], 52.3 µM; in assay [3], 52.2 µM; in assay [4], > 100 µM; in assay [5], > 100 µM; in assay [6], 39.9 µM. The TGI was > 100 µM in assay [7]; 31 µM in assay [8]; 28.5 µM in [9]; 37.2 µM in assay [10]; 31.6 µM in assay [11]; 41.9 µM in assay [12]. Further, the concentration for total growth inhibition (TGI) in [13] was 45.9 µM; in assay [14], > 100 µM; in assay [15] it was 32 µM; in assay [16], 42.5 µM; in assay [17] it was 47 µM; in assay [18] it was 44.2 µM. Further, the TGI in [19] was 50.7 µM.

For `CC1(C)OCC(C2OC(OC(=O)c3ccc([N+](=O)[O-])cc3)C3OC(C)(C)OC23)O1` (configuration not stated), the TGI in assay [1], in assay [2], in assay [3], in [4], in assay [5] and in assay [6] was > 100 µM each time. The TGI in [7], in assay [8], in assay [9], in assay [10], in [11] and in [12] was > 100 µM throughout. The TGI in assay [20], in assay [13], in [14], in assay [15], in assay [16] and in assay [17] was > 100 µM throughout. The TGI in [19] is > 100 µM.

For the molecule `COc1cc2c(cc1OC)CN1CCCc3cc(OC)c(OC)cc3C1C2` (configuration not stated), the TGI in [1] was > 100 µM; in [2] it was > 100 µM; in assay [3], > 100 µM; in [4], > 100 µM; in assay [5], > 100 µM; in assay [6] it was 61.7 µM. Besides, the TGI in assay [7], in assay [8], in assay [9], in assay [10], in [11] and in assay [20] was > 100 µM throughout. Besides, the TGI in assay [13] was > 100 µM; in assay [14] it was > 100 µM; in [15], 94.4 µM; in assay [16] it was > 100 µM; in assay [17], > 100 µM; in [19], > 100 µM.

With `CCN1C(=O)/C(=C2\SC(c3ccccc3)(c3ccccc3)c3ccccc32)SC1=S`, the TGI in assay [1], in [3], in [4], in [5], in assay [6] and in [7] was > 100 µM throughout. Also, the TGI in assay [8], in assay [9], in [10], in [11], in assay [20] and in [13] was > 100 µM throughout. Further, the TGI in assay [14], in assay [15], in [16], in [17] and in assay [19] was > 100 µM in each case.

`N#CCCN(CCC#N)c1ccc(C(N=Nc2ccccc2)=Nc2ccc(Cl)cc2)cc1`: the TGI in assay [1], in assay [2], in [3], in assay [4], in [5] and in assay [6] was > 100 µM each time. The TGI in assay [7], in [8], in assay [9], in assay [10], in assay [11] and in assay [20] was > 100 µM throughout. For the same molecule, the concentration for total growth inhibition (TGI) in assay [13], in assay [14], in assay [15], in assay [16], in [17] and in assay [19] was > 100 µM throughout.
